The term Km denotes the substrate concentration at which the rate is half of its maximum. In general, Ki refers to a dissociation constant, usually derived from enzyme kinetics or from competition with a known ligand.

Assay [1] in a line: in-vitro activity assay of Hbd homologues in lysate, NADH consumption at 340 nm. In kind it is biochemical. The settings on record: lysate of GEVO768 (E. coli W3110Z1) transformant, 0.1 mM acetoacetyl CoA, 0.2 mM NADH, pH 7.0. From the text:
(§1) In particular, homologues of the pathway enzymes hydroxyl butyryl CoA dehydrogenase (Hbd), crotonase (Crt) and thiolase (Th1) were expressed and compared by in-vitro activity assay. The hydroxyl butyryl CoA dehydrogenase homologues tested were pGV1037 (Hbd from Clostridium acetobutylicum), pGV1041 (Hbd from Butyrivibrio fibrisolvens), pGV1050 (Hbd from Clostridium beijerinkii), and pGV1154 (Hbd from Clostridium acetobutylicum, codon optimized gene sequence). The crotonase homologues tested were pGV1040 (Crt from Butyrivibrio fibrisolvens), pGV1049 (Crt from Clostridium beijerinkii), pGV1094 (Crt from Clostridium acetobutylicum) and pGV1189 (Crt from Clostridium acetobutylicum, codon optimized gene sequence). The thiolase homologues tested were pGV1035 (Th1 from Clostridium acetobutylicum), pGV1039 (Th1 from Butyrivibrio fibrisolvens), and pGV1188 (Th1 from Clostridium acetobutylicum, codon optimized gene sequence). The genes were expressed and assayed as per the following outlined protocol
(§2) GEVO768 (E. coli W3110Z1) was transformed with each of the plasmids and the transformants were plated on LB media with 100 μg/mL of chloramphenicol. The plates were incubated at 37° C. for 14-16 hours. Single colonies of the clones were used to inoculate 3 mL of LB media with 100 μg/mL of chloramphenicol. The cultures were incubated overnight at 37° C. at 250 rpm. The overnight cultures were used to inoculate 50 mL of EZ-rich medium in shake flasks with 100 μg/mL of chloramphenicol. The cultures were incubated at 37° C. at 250 rpm. At mid-exponential growth phase (OD600 0.6-0.8) the cultures were induced with 1 mM IPTG. […]
(§3) To test the activity of Hbd, 10 μL of the lysate was added to 190 μL of 50 mM MOPS pH 7.0 buffer containing 0.1 mM acetoacetyl CoA, and 0.2 mM NADH. The activity of Hbd was measured by monitoring the consumption of NADH at 340 nm. […] Enzyme activity was measured by monitoring the consumption of crotonyl CoA at 263 nm. […] Enzyme activity was measured by monitoring the consumption of acetoacetyl CoA at 303 nm. […]

In assay [2] the test system is C. acetobutylicum P262 Bcd. The conditions noted are these: read-out: Km of the C. acetobutylicum P262 Bcd for butyryl-CoA; cited from earlier work.
The subject of another assay is Bcd. The conditions noted are these: read-out: Km of Bcd for butyryl-CoA; unit inferred; cited from earlier work.
Assay [3] deals with crotonase (Crt) from C. acetobutylicum (Clostridium acetobutylicum, UniProt P52046). The conditions noted are these: crotonyl-CoA as substrate of C. acetobutylicum crotonase; cited from earlier work.
For another assay, the target named is T1, M. elsdenii Bcd (Megasphaera elsdenii, UniProt Q06319).
T1 sequence (Q06319 1-383): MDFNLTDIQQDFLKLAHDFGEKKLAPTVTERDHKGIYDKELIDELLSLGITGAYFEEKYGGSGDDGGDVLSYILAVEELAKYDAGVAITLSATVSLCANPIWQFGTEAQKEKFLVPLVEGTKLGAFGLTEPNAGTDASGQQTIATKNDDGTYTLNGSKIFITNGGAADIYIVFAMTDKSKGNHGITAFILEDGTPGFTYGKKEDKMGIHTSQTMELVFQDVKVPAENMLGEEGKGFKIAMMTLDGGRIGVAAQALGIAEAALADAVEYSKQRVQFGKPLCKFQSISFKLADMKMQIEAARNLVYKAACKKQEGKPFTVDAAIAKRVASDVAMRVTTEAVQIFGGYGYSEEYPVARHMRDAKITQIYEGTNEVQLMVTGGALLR
The settings on record: inhibition of M. elsdenii Bcd; cited from earlier work.

A short description of assay [4]: in-vitro activity assay of Crt homologues in lysate, crotonyl CoA consumption at 263 nm. The assay is classed as biochemical. The settings on record: lysate of GEVO768 (E. coli W3110Z1) transformant, 30 μM crotonyl CoA, pH 7.6.
Description: as §1, §2, §3

For “pGV1154: plasmid-expressed Hbd from Clostridium acetobutylicum, codon optimized gene sequence”, the “Specific activity (Hbd)” value in assay [1] is given as 11.69 nmol/min/μg total cell protein; in assay [1] (listed as Hbd), 11.6 nmol/min/μg total cell protein.

Consider “pGV1037: plasmid-expressed Hbd from Clostridium acetobutylicum”, for which the “Specific activity (Hbd)” value in assay [1] is given as 3.51 nmol/min/μg total cell protein.

`CCCC(=O)SCCNC(=O)CCNC(=O)[C@H](O)C(C)(C)COP(=O)(O)OP(=O)(O)OC[C@H]1O[C@@H](n2cnc3c(N)ncnc32)[C@H](O)[C@@H]1OP(=O)(O)O` [butyryl-CoA]: the Km in assay [2] was ~6 µM; with Bcd, 5 µM. In the case of `C/C=C/C(=O)SCCNC(=O)CCNC(=O)[C@H](O)C(C)(C)COP(=O)(O)OP(=O)(O)OC[C@H]1O[C@@H](n2cnc3c(N)ncnc32)[C@H](O)[C@@H]1OP(=O)(O)O` [crotonyl-CoA], in assay [3], the Km is 30 µM and the Vmax is given as 6.5×10^6 moles per min per mole. For `CC(=O)CC(=O)O` [acetoacetate], the Ki at M. elsdenii Bcd was 100 nM.

B1: GV1189: plasmid-expressed Crt from Clostridium acetobutylicum, codon optimized gene sequence (protein, UniProt P52046 1-261, looked up)
Short-chain-enoyl-CoA …: MELNNVILEKEGKVAVVTINRPKALNALNSDTLKEMDYVIGEIENDSEVLAVILTGAGEKSFVAGADISEMKEMNTIEGRKFGILGNKVFRRLELLEKPVIAAVNGFALGGGCEIAMSCDIRIASSNARFGQPEVGLGITPGFGGTQRLSRLVGMGMAKQLIFTAQNIKADEALRIGLVNKVVEPSELMNTAKEIANKIVSNAPVAVKLSKQAINRGMQCDIDTALAFESEAFGECFSTEDQKDAMTAFIEKRKIEGFKNR
For the molecule B1, the “Specific activity (Crt)” value was 916.99 nmol/min/μg total cell protein in assay [4] and 1178 nmol/min/μg total cell protein in assay [4] (listed as crotonase).

B2: pGV1094: plasmid-expressed Crt from Clostridium acetobutylicum (protein, UniProt P52046 1-261, looked up)
Short-chain-enoyl-CoA …: B1 Short-chain-enoyl-CoA …
Consider B2, for which, in assay [4], the “Specific activity (Crt)” value is recorded as 83.39 nmol/min/μg total cell protein.
